We go through one molecule from US8586505B2 (SDS Biotech K. K., priority 2009, dated 2013).

Data set [1] deals with Phytophthora infestans. The experiment in a line: whole plant or invertebrate. The data set is classed as in vivo. The conditions noted are these: in Solanum lycopersicum, 96 h, read-out: Determination of control effect (preventive value).
In data set [2] the test system is Pseudoperonospora cubensis. The experiment in a line: Test of examining control effect on Pseudoperonospora cubensis (potted cucumber plants). The data set is classed as in vivo. The conditions noted are these: 96 h, 10% wettable powder adjusted to 125 ppm, 15 ml/pot sprayed on potted cucumber plants one day before spray inoculation, assessed after 1 day wet chamber and 3 days greenhouse, read-out: Determination of control effect (preventive value) on Pseudoperonospora cubensis. The method in brief:
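Preventive treatment: 125 ppm sample agent solution (from 10% wettable powder) sprayed at 15 ml/pot on 2.5-leaf Sagamihanjiro cucumbers, then P. cubensis inoculated next day at 1.0×10^4 cells/ml. Incubation was 1 day wet at 21° C plus 3 days greenhouse. Lesion area rate compared with untreated gives preventive value (≥60% high).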

Data set [3] concerns Sphaerotheca fuliginea. The experiment in a line: Test of examining control effect on Sphaerotheca fuliginea (potted cucumber plants). The conditions noted are these: Podosphaera fuliginea, 336 h; 10% wettable powder adjusted to 125 ppm, 15 ml/pot sprayed on potted cucumber plants one day before spray inoculation; assessed after 14 days in greenhouse; read-out: Determination of control effect (preventive value) on Sphaerotheca fuliginea. It counts as in vivo. The method in brief: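 Control effect rated high at preventive value 60–100% and low below 60%, from lesion area relative to untreated plants 14 days after spray inoculation with S. fuliginea (1.0×10^5 cells/ml). Compound applied at 125 ppm as wettable-powder spray one day before inoculation, on 2nd-leaf-stage Sagamihanjiro cucumber.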

Data set [4] has as its system Tetranychus urticae eggs. The experiment in a line: Test of examining effect on Tetranychus urticae eggs (ovicidal rate). The conditions noted are these: 144 h, 0.4 ml sprayed, unhatched eggs counted six days later, read-out: Determination (ovicidal rate). It counts as in vivo. The method, then:
Thereafter, the released female adults were removed. […] Six days later, the number of unhatched eggs was counted, and an ovicidal rate was calculated.

Usually melting point stands for the temperature of the solid-liquid transition. Regarding `COC(=O)c1cccc(C#CCCNc2ncnc3sccc23)c1` [compound 30], the melting point was in the range of 163 to 166 °C. Moreover, in data set [1], the pest or weed control at 125 ppm lay within 0 to 60%. In addition, the pest or weed control at 125 µg/mL in data set [2] was 60 to 100%. Also, the pest or weed control at 125 µg/mL in data set [3] is 0 to 60%. Also, the pest or weed control at 250 ppm in data set [4] fell in the range of 60 to 80%.
